Reference: patent US3965257A, “Compositions and methods for the treatment of the symptoms of histamine induced allergic reactions” (Richardson-Merrell Inc., priority 1974, dated 1976)

Columns and labels:
[1] = system: aerosol antigen induced bronchial spasms and death; assay: prevention of aerosol antigen induced bronchial spasms and death in the guinea pig; type: in vivo; conditions: Cavia porcellus, po, orally, read-out: minimal amount required to prevent aerosol antigen induced bronchial spasms and death
Text: The minimal amounts of the compounds of Examples 4,5,6 and 9 required to prevent aerosol antigen induced bronchial spasms and death in the quinea pig are respectively 1.0, 4.0, 1.0 and 4.0 milligrams per kilogram of body weight orally.

[2] = system: wheals induced by intradermal injections of histamine; assay: reduction by 50% of wheals induced by intradermal injections of histamine into guinea pigs; type: in vivo, guinea pig; conditions: Cavia porcellus, po, 1 h, orally administered one hour prior to the histamine injection, read-out: ED50 (amount required to reduce by 50% wheals induced by intradermal injections of histamine)

| Compound | minimal effective dose [1] | ED50 [2] |
| --- | --- | --- |
| Cl.O=C(CCCN1CCC(C(O)(c2ccccc2)c2ccccc2)CC1)c1cccs1 [Example 4, 4-[4-(α -Hydroxy-α -phenylbenzyl)piperidino] -1-(2-thienyl)-butan-1-one hydrochloride] | 1 mg/kg | 3.1 mg/kg |
| Cc1ccc(C(=O)CCCN2CCC(C(O)(c3ccccc3)c3ccccc3)CC2)cc1.Cl [Example 5, 4-[4-(α-Hydroxy-α-phenylbenzyl)piperidino] -4'-methylbutyrophenone hydrochloride] | 4 mg/kg | 1.9 mg/kg |
| CC(C)(C)c1ccc(C(=O)CCCN2CCC(C(O)(c3ccccc3)c3ccccc3)CC2)cc1.Cl [Example 6, 4'-tert-Butyl-4-[4-(α-hydroxy-α-phenylbenzyl)piperidino] butyrophenone hydrochloride] | 1 mg/kg | 1.8 mg/kg |
| O=C(CCCN1CCC(C(O)(c2ccccc2)c2ccccc2)CC1)c1ccc(N2CCCCC2)cc1 [Example 9, 4-[4-(α-Hydroxy-α-phenylbenzyl)piperidino]-4'-piperidinobutyrophenone] | 4 mg/kg | 3.4 mg/kg |
